Test results reported in patent publication US10272080B2, “Selective dopamine D4 receptor agonists for treatment of working memory deficits” (priority 2013, dated 2019).

Columns and labels:
[1] = system: PNE mice; experiment: Y-maze spontaneous alternation assay in prenatal nicotine exposure (PNE) mice; assay type: in vivo, mice (C57/B6); conditions: for changes in spontaneous alternations in PNE mice (Y-maze): PNE mice only, FIG. 6, N=8-9; for spontaneous alternations in the PNE mice, comparison of methylphenidate and PD 168077: FIG. 10, n=9-10 per group
Experimental: (§1) A prenatal nicotine exposure (PNE) mouse model to screen for drugs that alleviate the symptoms of ADHD and associated working memory deficits is developed.^13,14 In this model, adult female C57/B6 mice are exposed to nicotine (100 μg/ml nicotine and 2% saccharin in drinking water, pH 7.2) starting 4-6 weeks prior to mating with drug-naïve male mice, and throughout their pregnancies. Two groups of age- and bodyweight-matched female mice are used as controls. In the saccharin-only (SAC) control group, mice were exposed to saccharin alone (2% saccharin in drinking water, pH 7.2), and mice in the plain drinking water (WATER) control group were exposed to drinking water without any additives. On the day the mice littered, the litter size was standardized to contain 6-8 offspring (4 males and 4 females, whenever possible). Within 48 hours of birth offspring from the PNE, SAC and WATER groups were removed from their biological mothers and cross fostered to drug-naïve nursing dams. At the age of 90 days (postnatal day 90; P90), male offspring from each group were used in experimental analyses.
(§2) On postnatal day 90 (P90), a Y-maze assay is used to examine changes in spontaneous alternation in the PNE mouse model.
In additional experiments, saline, selective D1 receptor agonist (A-77636), selective D2/D3 receptor agonist (LY 171555), and selective D4 receptor agonist (PD 168077) are administered to the PNE and SAC mice followed with the assay of spontaneous alternations using the Y-maze.
Methylphenidate, the classic stimulant treatment for ADHD, is examined for its efficacy in alleviating working memory deficits in the PNE mice. It is disclosed that methylphenidate increases extracellular dopamine in the frontal cortex of mice.^1,14 In the example of the present invention, saline or a therapeutic equivalent dose of methylphenidate^18 is administered to PNE and SAC mice. The PNE and SAC mice administered saline or a therapeutic equivalent dose of methylphenidate are assayed for spontaneous alternations in the Y-maze.

[2] = system: SAC mice; experiment: Y-maze spontaneous alternation assay in saccharin-only (SAC) control mice; assay type: in vivo, mice (C57/B6)
Experimental: as §1
On postnatal day 90 (P90), a Y-maze assay is used to examine changes in spontaneous alternation in the PNE mouse model. […]

[3] = system: drug naïve mice; experiment: Y-maze spontaneous alternation in drug naïve (WATER group) mice with pharmacological blockade of the D4 receptor; assay type: in vivo, mice (C57/B6); conditions: drug naïve mice given D4 antagonist L 745087, Panel B of FIG. 7
Experimental: as §1, §2

[4] = system: dopamine D4 receptor; experiment: GTPγS binding assay, D4 receptor activity in frontal cortical membrane preparations after methylphenidate treatment; assay type: biochemical, mice; conditions: FIG. 9
Experimental: Following the Y maze assay, GTPγS receptor binding assay is performed to examine the dopamine receptor signaling in mice of different groups and therefore to determine which dopamine subtypes are activated. GTPγS binding assay is used to measure agonist-induced dopamine receptor-G-protein coupling in membrane preparations obtained from specific brain regions such as the frontal cortex.^17 This assay uses pharmacological compounds that selectively activate each receptor subtype. Since compounds selective for each of the 5 dopamine receptor subtypes are not available yet, testing is limited to assaying activities of the D2/D3 and D4 receptor only. In this assay, a D2 receptor agonist LY 171555 and a selective D4R agonist PD 168077, both in 30 μM, are used to exam the activities of D2/D3 receptor and D4 receptor, respectively.
D2/D3 and D4 receptor activities are also analyzed using GTPγS binding assays with frontal cortical membrane preparations from PNE and SAC mice following the methylphenidate treatment. Increases are found in D4 agonist-induced G-protein coupling in the frontal cortices of PNE mice following the methylphenidate treatment, compared to saline treatment (Panel A, FIG. 9). […]

[5] = system: dopamine D2/D3 receptors; experiment: GTPγS binding assay, D2/D3 receptor activity in frontal cortical membrane preparations after methylphenidate treatment; assay type: biochemical; conditions: PNE or SAC mice after methylphenidate treatment, FIG. 9
Experimental: D2/D3 and D4 receptor activities are also analyzed using GTPγS binding assays with frontal cortical membrane preparations from PNE and SAC mice following the methylphenidate treatment. […] Mean±SEM, n=10-11 per group.

CCCN1CCC[C@@H]2Cc3n[nH]cc3C[C@H]21 [LY 171555]
changes in spontaneous alternations in PNE mice (Y-maze) [1]: neither the D1 nor the D2/D3 agonist produces significant changes

NC[C@@H]1O[C@H](C23CC4CC(CC(C4)C2)C3)Cc2c1ccc(O)c2O [A-77636]
changes in spontaneous alternations in PNE mice (Y-maze) [1]: neither the D1 nor the D2/D3 agonist produces significant changes

Cc1cccc(C(=O)NCN2CCN(c3ccccc3C#N)CC2)c1 [PD 168077, N-([4-(2-cyanophenyl)piperazin-1-yl]methyl)-3-methylbenzamide]
spontaneous alternations in the PNE mice, comparison of methylphenidate and PD 168077 [1]: greater than that of MPH | working memory in prenatal nicotine exposure mouse models ([1]; PD 168077 about 10 mg per kilogram body weight): shows improvement in working memory | working memory in prenatal nicotine exposure mouse models ([1]; PD 168077 about 20 mg per kilogram body weight): shows greater improvement in working memory | difference in spontaneous alternations between the PNE group and the SAC group after administration ([1]; after PD 168077 administration, FIG. 5): no statistically significant difference | spontaneous alternations in the PNE mice (Y-maze) ([1]; dose from about 10 mg/kg to about 20 mg/kg, FIG. 5): produces improvement in spontaneous alternations in the PNE mice in a dose dependent manner | change in spontaneous alternations in the SAC group (Y-maze) ([2]; 20 mg/kg, FIG. 5): the change is not significant | effect on L 745087 antagonist-induced decrease in spontaneous alternations [3]: abolishes the antagonist-induced decreases in spontaneous alternations in a dose-dependent manner

COC(=O)C(c1ccccc1)C1CCCCN1 (stereo not shown) [methylphenidate]
spontaneous alternations in the PNE mice, comparison of methylphenidate and PD 168077 [1]: increase spontaneous alternations | spontaneous alternation in PNE mice (Y-maze), Mean±SEM ([1]; single oral 0.75 mg/kg about 30 minutes before the Y maze assay, saline about 48.0±2.2, FIG. 8): about 57.1±1.8 | difference in spontaneous alternations between methylphenidate-exposed PNE mice and saline-exposed SAC control mice ([1]; single oral 0.75 mg/kg, FIG. 8): no longer a significant difference | spontaneous alternations in the SAC control group (Y-maze) ([2]; single oral 0.75 mg/kg, FIG. 8): no significant effect | activity of D4 receptor in the prefrontal cortex (D4 agonist-induced G-protein coupling), Mean±SEM ([4]; MPH treated PNE mice, saline treated about 92.0±3.5): about 131.6±11.6 | D4 receptor activity in the SAC group ([4]; SAC mice receiving methylphenidate treatment): no significant change | D2/D3 receptor coupling to G-protein in the frontal cortices [5]: does not produce significant alterations
